# Data from patent US20150216898A1, “COMPOSITION FOR TREATING PSORIASIS” (PSORIASIS+CREAMS SWEDEN AB, priority 2012, published 2015).
# Tested on: subjects suffering from psoriasis
# Assay: Previous treatment(s) of the subjects (anamnesis)
# Type: in vivo, human
# Settings: Subject 4; previous treatment supplemented with moisturisers and emollients; responded well at first, more frequent relapses later
# From the text: The subject had been diagnosed with psoriasis for nearly 25 years ago and had previously used combinations of local corticosteroids and emollient and moisturizing creams. Further, the subject had also tried photo therapy as well as a topical tar based product (Skillingarydsalvan Original). […] Further, the subject experienced side-effects (e g skin damage, such as skin thinning, changes in pigmentation, easy bruising, stretch marks, redness and dilated surface blood vessels) typically seen with treatment with corticosteroids.
# Previous treatment(s): The subject had used corticosteroids such as mometasone furoate, prednicarbate and most recently calcitriol, always supplementing the treatment with moisturisers and emollients.
row,Compound,effect of previous treatment over time
1,C[C@@H]1C[C@H]2[C@@H]3CCC4=CC(=O)C=C[C@]4(C)[C@@]3(Cl)[C@@H](O)C[C@]2(C)[C@@]1(OC(=O)c1ccco1)C(=O)CCl [mometasone furoate],no longer as effective
2,CCOC(=O)O[C@]1(C(=O)COC(=O)CC)CC[C@H]2[C@@H]3CCC4=CC(=O)C=C[C@]4(C)[C@H]3[C@@H](O)C[C@@]21C [prednicarbate],no longer as effective
3,C=C1/C(=C\C=C2/CCC[C@]3(C)[C@@H]([C@H](C)CCCC(C)(C)O)CC[C@@H]23)C[C@@H](O)C[C@@H]1O [calcitriol],no longer as effective
